Measured values published in patent US10702512B2, “Treatment of debilitating fatigue” (A. CARLSSON RESEARCH AB, priority 2015, dated 2020).

Columns and labels:
Format in all cases: in vivo, human
ME/CFS patients [1] = assay: FibroFatigue scale (FF) total score, phase II clinical study
Excerpt: As used herein, the term “FF-scale” or “FF” refers to the FibroFatigue scale also known as the fibromyalgia and chronic fatigue syndrome rating scale described in by Zachrisson and coworkers (Zachrisson O, et al, (2002) J Psychosom Res Jun; 52(6):501-9). The FibroFatigue scale is an observer's rating scale with 12 items measuring pain, muscular tension, fatigue, concentration difficulties, failing memory, irritability, sadness, sleep disturbances, and autonomic disturbances and irritable bowel, headache and subjective experience of infection. […] Circular coated tablets for oral use of 15 mg and matching placebos was used. The tablets were administered by research nurses at the study site. The tablets were circular coated tablets for oral use containing 15 mg OSU6162. Matching placebos were used. The start dose was 15 mg OSU6162 twice daily (before breakfast and lunch) during 1 week with dose increase up to 30 mg twice daily during the following week. Additionally, the clinical effect was evaluated using the FF-scale, The Beck/BDI scale, VAS pain scale and with neuropsychological tests. To examine the effect of treatment and concomitant use of an antidepressant, antidepressant was included as a fixed factor in the analyses. […] Outcome targets FF, MFS and BDI were measured.

ME/CFS patients [2] = assay: mental fatigue self-assessment questionnaire (MFS) total score, phase II clinical study
Description: As used herein, the term “MFS” refers to a the mental fatigue self-assessment questionnaire (Johansson B et al (2010) Brain Injury 2010; 24:2-12). […] Circular coated tablets for oral use of 15 mg and matching placebos was used. The tablets were administered by research nurses at the study site. The tablets were circular coated tablets for oral use containing 15 mg OSU6162. Matching placebos were used. The start dose was 15 mg OSU6162 twice daily (before breakfast and lunch) during 1 week with dose increase up to 30 mg twice daily during the following week. Efficacy was measured according to ratings using the self-assessment questionnaire for mental fatigue and related symptoms (MFS) after neurological disorders and injuries (Johansson et al, supra). Another primary endpoint was the result of the rating by the Clinical Global Impression of Change (Guy, supra), which rating was made by the doctor in charge of the patient. CGI-C scores range from 1 (very much improved) through to 7 (very much worse). To examine the effect of treatment and concomitant use of an antidepressant, antidepressant was included as a fixed factor in the analyses. […] Outcome targets FF, MFS and BDI were measured.

ME/CFS patients [3] = assay: Barrow Neurological Institute Screen for Higher Cerebral Functions (BNIS)
Description: Next, patients were evaluated using a neuropsychological test. 61 patients were included in a neuropsychological examination. All subjects were tested once in connection with the randomization with the BNIS neuropsychological screening test. 20-30 minutes was required for this test. With the purpose of measuring the cognitive effects of the OSU6162 treatment six more tests were distributed at a first occasion before the initiation of treatment and at a second occasion after the treatment was completed. These tests required 20 minutes each. All tests were performed by a neuropsychologist. Barrow Neurological Institute Screen for Higher Cerebral Functions (BNIS) is a screening test constructed to quantitatively and qualitatively reflect the outcome of a range of higher cerebral functions. The three initial items are pre-screening items where arousal level, basic communication skills and level of cooperation are assessed (a maximum score of 9) to decide whether the status of the patients allows further testing. At least two points in each item are required. The BNIS contains the following domains: speech and language (maximum score 15), orientation (maximum score 3), attention/concentration (maximum score 3), visual and visual spatial problem solving (maximum score 8), learning and memory (maximum score 7), affect (maximum score 4) and awareness vs. performance (maximum score 1). The test provides a total score=50 of overall cognitive functioning and subscale scores. A score less than 47 indicates brain dysfunction.

ME/CFS patients [4] = assay: Stroop tests (Victoria version); parameters: Stroop 2, mean / Stroop 2, Difference / Stroop 2, median / Stroop 3, mean / Stroop 3, Difference / Stroop 3, median / Stroop 1, mean / Stroop 1, Difference / Stroop 1, median: unit not given here
Description: Next, patients were evaluated using a neuropsychological test. 61 patients were included in a neuropsychological examination. All subjects were tested once in connection with the randomization with the BNIS neuropsychological screening test. 20-30 minutes was required for this test. With the purpose of measuring the cognitive effects of the OSU6162 treatment six more tests were distributed at a first occasion before the initiation of treatment and at a second occasion after the treatment was completed. These tests required 20 minutes each. All tests were performed by a neuropsychologist. The Stroop test (Victoria version) is a time-based test sensitive to frontal lobe dysfunction. It measures executive functioning and is validated and used internationally. Depression and anxiety could influence the results. Speeds of processing and conceptual abilities contribute to the performance. It also reflects the ability of concentration. The test consists of three cards each containing six rows of four items. Stroop I is on the first card. In this subtest the subject must name as quickly as possible the color of 24 dots printed in blue, green, red and yellow. Each color is used six times and the four colors are arranged in pseudo-random order within the array, each color appears once in a row. Stroop 2 is on the second card. In this subtest the dots are replaced by common words printed in lower-case letters. The subject is required to name the colors in which the stimuli are presented and to disregard their verbal content. Stroop 3 is on the third card. In this subtest the colored stimuli are the color names “blue, green, red and yellow” printed in lower case letters so that the print color never corresponds to the color name.

[5] = patients not on antidepressant therapy, post hoc comparison
[6] = OSU6162 group, tested once in connection with randomization

In the case of `CCCN1CCC[C@@H](c2cccc(S(C)(=O)=O)c2)C1.Cl` [OSU6162, (3S)-3-[3-(methylsulfonyl)-phenyl]-1-propylpiperidine hydrochloride], the “FF main effect of treatment” value (ME/CFS patients [1]; 2-way ANOVA, OSU6162 vs placebo) is reported as “None”, the “FF interaction between treatment with OSU6162 and antidepressant over time” value (ME/CFS patients [1]; 3-way ANOVA week*treatm*antidepr, F3,180=6.785, p=0.0002) is reported as “statistically significant 3-way interactions” and the “FF difference between OSU6162 treated and placebo treated patients” value (ME/CFS patients [1]; [5]) is reported as “No difference”. The “FF change from week 0, difference OSU6162 vs placebo (95% confidence interval)” value (ME/CFS patients [1]; patients on stable antidepressant therapy, after one week of treatment, F1,56=6.320, p=0.015, Bonferroni) was −7.23 (−13.1 to −1.48), the “MFS overall group difference between OSU6162 and placebo” value (ME/CFS patients [2]; 2-way ANOVA, F1,60=3.997, p=0.050) was “borderline significant trend” and the “MFS interaction between treatment with OSU6162 and antidepressant over time” value (ME/CFS patients [2]; 3-way ANOVA week*treatm*antidepr, F3,180=2.755, p=0.044) was “statistically significant 3-way interactions”. For the same compound, the “MFS overall difference between OSU6162 and placebo” value (ME/CFS patients [2]; 3-way analysis with antidepressant as fixed factor, F1,60=3.578, p=0.063) was “tendency to an overall difference”, the “MFS difference between OSU6162 treated and placebo treated patients” value (ME/CFS patients [2]; [5]) was “No difference” and the “MFS change from week 0, difference OSU6162 vs placebo (95% CI)” value (ME/CFS patients [2]; patients on stable antidepressant therapy, after one week of treatment, F1,56=5.915, p=0.018, Bonferroni) was −4.82 (−8.79 to −0.85). The “BNIS total score, max” value (ME/CFS patients [3]; [6]) was 50, the “BNIS total score, mean” value (ME/CFS patients [3]; [6]) was 45.2 and the “BNIS total score, min” value (ME/CFS patients [3]; [6]) was 33. The “BNIS difference between OSU6162 and placebo groups” value (ME/CFS patients [3]; in vivo) was “No significant difference”, the Stroop 1, max (ME/CFS patients [4]; after treatment) was 20 s and the “Stroop 1, mean” value (ME/CFS patients [4]; after treatment) was 12.77. The “Stroop 1, median” value (ME/CFS patients [4]; after treatment) was 12, the “Stroop 1, min” value (ME/CFS patients [4]; after treatment) was 8 and the Stroop 2, max (ME/CFS patients [4]; after treatment) was 29 s. The “Stroop 2, mean” value (ME/CFS patients [4]; after treatment) was 16.9, the “Stroop 2, median” value (ME/CFS patients [4]; after treatment) was 16 and the “Stroop 2, min” value (ME/CFS patients [4]; after treatment) was 9. The Stroop 3, max (ME/CFS patients [4]; after treatment) was 62 s, the “Stroop 3, mean” value (ME/CFS patients [4]; after treatment) was 23.48 and the “Stroop 3, median” value (ME/CFS patients [4]; after treatment) was 23. For the same compound, the “Stroop 3, min” value (ME/CFS patients [4]; after treatment) was 12, the “Stroop tests difference between OSU6162 and placebo groups” value (ME/CFS patients [4]; before and after treatment) was “No significant differences” and the Stroop 1, max (ME/CFS patients [4]; before treatment) was 22 s. For the same compound, the “Stroop 1, mean” value (ME/CFS patients [4]; before treatment) was 13.97, the “Stroop 1, median” value (ME/CFS patients [4]; before treatment) was 14 and the “Stroop 1, min” value (ME/CFS patients [4]; before treatment) was 9. The Stroop 2, max (ME/CFS patients [4]; before treatment) was 39 s, the “Stroop 2, mean” value (ME/CFS patients [4]; before treatment) was 19.5 and the “Stroop 2, median” value (ME/CFS patients [4]; before treatment) was 19. The “Stroop 2, min” value (ME/CFS patients [4]; before treatment) was 10, the Stroop 3, max (ME/CFS patients [4]; before treatment) was 51 s and the “Stroop 3, mean” value (ME/CFS patients [4]; before treatment) was 26.8. For the same compound, the “Stroop 3, median” value (ME/CFS patients [4]; before treatment) was 24, the “Stroop 3, min” value (ME/CFS patients [4]; before treatment) was 14 and the “Stroop 1, Difference” value (ME/CFS patients [4]; before vs after treatment) was 1.2. For the same compound, the “Stroop 2, Difference” value (ME/CFS patients [4]; before vs after treatment) was 3.2 and the “Stroop 3, Difference” value (ME/CFS patients [4]; before vs after treatment) was 4.9.
